Tests used:
hM3Dq or rM3Ds = experiment: Locomotion test in macaques after nigral DREADD AAV and CNO; assay type: in vivo
Description: To guide the virus injection in SNr, a guide grid of multiple holes spaced by 1 mm was installed on each subject vertically above the SN. By filling vitamin E in these holes, the accurate coordinates for injection could be obtained from the T1-weighted MRI images (3T Tim Trio scanner, Siemens). Virus injections were performed in nine sites covering the whole SNr, and a total volume of 27 μL virus was unilaterally injected in the right SNr at the speed of 300 nL/min.
To intracranially administrate drug and/or perform electrophysiological recording, a recording chamber covering from anterior caudate to posterior GPi was fixed on the skull with 6 titanium screws and dental cement. Each subject was allowed to recover from the surgery for at least 6 weeks prior to further studies.
Locomotion Test: The locomotion tests for monkeys were conducted in a custom-made observation cage (100 cm×100 cm×100 cm). The top and front of the cage were made of toughened glass in order to gain a clear view for behavioral recording. Monkeys were habituated to the observation cage by placing them inside for 30 minutes on three separate days.
For monkeys injected with AAV8R12-G88P3-HA-hM3Dq, CNO was intracranially infused into the dorsomedial caudate through the recording chamber. To infuse while the animal was awake, the monkey was trained to sit in a primate chair specially designed with its head fixed to the primate chair by a mask made of thermoplastic materials. Injections were conducted through a 33-Gauge needle connected to a 250 μL syringe via a polyethylene pipe (Hamilton, Neuros). […] The needle was held for 5 minutes for drug diffusion before retraction. For monkeys injected with AAV8R12-G88P7-rM3Ds-2A-EYFP, CNO was infused via intramuscular injection (10 mg/kg). […] Videos capturing the subjects' behavior were recorded for at least 90 minutes. Animal behaviors from 30-90 minutes after saline/CNO infusion were further analyzed and quantified.
For rotation analysis, only movements that occurred lower than 30 cm on the z-axis were counted. To determine the direction of the rotation, we first computed the center for the rotation data in the x-y plane as (x0, y0) by averaging all data points, and then we computed the angle relative to (x0, y0) for each time point by the following formula:
where θi represents the rotating angle at time i, and (xi, yi) represents the x-y coordinate at time i. We then calculated the change of rotating angle as Δθi=θi−θi−1. For right nigral injections, when Δθ<0, the direction of the rotation was anticlockwise and was labeled as a contraversive rotation. When Δθ>0, the direction of the rotation was clockwise and was labeled as an ipsiversive rotation. The raw data were analyzed and plotted through a custom R package. Code is available on Github (github.com/chenyef/PD_ana/blob/main/Behavior_ana.txt).

rM3Ds = target: T1, rM3Ds (Rattus norvegicus, UniProt P08483, A177S/A238G/A489L/DEL261-437/DEL441-478/E258S/I253V/I483M/INS256[…]/K178L/K182A/K255R/K484R/K486H/L173F/L482A/M480V/R171S/R176Q/R179M/S481M/T174R/T181R/T257A/Y148C); experiment: Chemogenetic manipulation of BG direct pathway in mice with rM3Ds: rotations, nigral c-Fos; assay type: in vivo; parameters: 2A-EYFP (C); expressed in transfected cells; host or cells: neurons (striatal D1-MSNs) of mice or cynomolgus macaques, transduced in vivo by nigral AAV8R12-G88P7-rM3Ds-2A-EYFP; details: for contraversive rotations (FIG. 7A), mean±SEM: AAV8R12-G88P7-rM3Ds-2A-EYFP nigral, n=8; for rotation behavior (FIG. 7C), mean±SEM: control vector AAV8R12-G88P7-EYFP, n=5, no effect
T1 sequence (P08483 with tags, fused parts or gaps Y148C/R171S/L173F/T174R/R176Q/A177S/K178L/R179M/T181R/K182A/A238G/I253V/K255R/INS256[…]/T257A/E258S/DEL261-437/DEL441-478/M480V/S481M/L482A/I483M/K484R/K486H/A489L): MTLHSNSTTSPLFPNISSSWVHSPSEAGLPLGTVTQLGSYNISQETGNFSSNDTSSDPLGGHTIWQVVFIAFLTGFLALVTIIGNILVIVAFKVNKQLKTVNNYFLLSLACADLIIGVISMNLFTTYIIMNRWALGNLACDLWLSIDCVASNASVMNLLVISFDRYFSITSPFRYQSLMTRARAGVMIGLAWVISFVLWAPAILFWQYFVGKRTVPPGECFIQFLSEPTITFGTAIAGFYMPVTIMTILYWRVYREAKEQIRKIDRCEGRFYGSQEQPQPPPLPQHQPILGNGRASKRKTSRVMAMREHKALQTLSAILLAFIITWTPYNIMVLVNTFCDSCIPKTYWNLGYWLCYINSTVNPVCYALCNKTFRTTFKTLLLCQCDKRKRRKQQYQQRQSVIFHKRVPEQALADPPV
Description: Mice were anesthetized with sodium pentobarbital (Nembutal; 80 mg/kg, i.p.), and then placed into a stereotaxic device (KOPF). Eye cream was applied on both corneas to avoid dehydration. The skull above the targeted areas was thinned with a dental drill and carefully removed. Injections were conducted with a 10 μL syringe connected to a 33-Gauge needle (Neuros; Hamilton), using a microsyringe pump (Legato 130, KD Scientific). A total volume of 200 nL virus was injected into the SNr at a speed of 20 nL/min. The coordinates for the SNr were 3.4 mm posterior, 1.3 mm lateral, 4.8 mm ventral to the bregma.
Mice that were used in the behavioral experiments were then implanted with guide cannulas (KOPF) unilaterally aiming at the dorsomedial striatum (0.5 mm anterior, 1.5 mm lateral, 3.5 mm ventral to the bregma). The cannulas were fixed to the skull with dental cement. Stainless steel obturators were inserted into the guide cannulas and were replaced every other day to maintain the patency until infusions were made. Mice were allowed to recover from the surgery for at least 3 weeks before further studies.
To further optimize the system, an alternative chemogenetic effector that would potentially allow specific manipulation of the direct pathway compatible with systemic CNO infusions needed to be identified. […]. A different chemogenetic effector, rM3Ds, which uses cAMP as the second messenger and can effectively activate striatal MSNs, was used to avoid the activation of SNr neurons upon systemic CNO administration.
Together, these findings confirm that the approach we developed is a durable solution for selective activity modulation of D1-MSNs and the BG direct pathway.
Mice were individually handled for 10-20 seconds per day for at least 5 days to habituate them to the experimenter. The open field test was conducted in a test apparatus (50 cm×50 cm×50 cm) with an HD digital camera (Sony) positioned above the arena. On day one, mice were habituated to the apparatus for 10 minutes. On day 2, mice were administrated saline (0.1 mL i.p. or 200 nL intracranially [i.e.] through the guide cannulas). On day 3, mice were administrated with Clozapine-N-oxide (CNO, Hello Bio, HB1807; 0.3 mg/kg i.p. or 200 nL at 100 μM i.e.). All behavioral tests were conducted 30 minutes after injection. During the test, mice were allowed to freely explore the apparatus for 10 minutes. The behavioral data were analyzed with ANY-maze software (Stoelting Co.).

## C[N+]1([O-])CCN(C2=Nc3cc(Cl)ccc3Nc3ccccc32)CC1 [CNO, Clozapine-N-oxide]
hM3Dq or rM3Ds; following CNO infusions, macaques
  muscle tone, electromyogram recordings: increase in the muscle tone of the contralateral biceps brachii
hM3Dq or rM3Ds; hM3Dq (intracranial CNO) or rM3Ds (systemic CNO) macaques, n=4, saline 1.004±0.2667
  contraversive rotations (FIG. 10C), mean±SEM: 6.649±1.662
hM3Dq or rM3Ds; n=4 macaques, saline 37.43±3.264, not significant
  velocity of ipsiversive rotations (FIG. 10H), mean±SEM: 41.37±6.566
hM3Dq or rM3Ds; n=4 macaques, saline 38.42±5.465
  speed during contraversive rotations (FIG. 10G), mean±SEM: 46.98±6.669
hM3Dq or rM3Ds; n=4 macaques, saline 68.42±10.7
  time in the top portion of the observing cage (FIG. 10D), mean±SEM: 33.74±2.641
hM3Dq or rM3Ds; n=4 macaques, saline 71.53±15.4, not significant
  total distance (FIG. 10F), mean±SEM: 97.37±19.41
hM3Dq or rM3Ds; n=4 macaques, saline 107.1±2.322, not significant
  immobile time (FIG. 10E), mean±SEM: 89.13±8.379
rM3Ds; CNO i.p., saline 45.95±4.972
  contraversive rotations (FIG. 7A), mean±SEM: 80.05±5.168
rM3Ds; CNO intracranial, saline 58.31±4.742
  contraversive rotations (FIG. 7A), mean±SEM: 80.77±4.187
rM3Ds; AAV8R12-G88P7-rM3Ds-2A-EYFP, intraperitoneal and intracranial CNO
  c-Fos+ cells in the SNr: did not increase the number of c-Fos+ cells in the SNr
rM3Ds; CNO i.p., saline 48.68±7.203
  rotation behavior (FIG. 7C), mean±SEM: 46.88±7.497
rM3Ds; CNO intracranial, saline 41.11±12.73
  rotation behavior (FIG. 7C), mean±SEM: 34.55±7.536
